Results as given in patent US20260354380A1, “PYRAZOLO PESTICIDAL COMPOUNDS” (BASF SE, priority 2022, published 2026).

Experiments:
Format in all cases: in vivo
Dichromothrips corbetti = assay: Action on Orchid Thrips (Dichromothrips corbetti); details: 300 ppm, adults, 72 hours after treatment
Procedure: Example B2: Action on Orchid Thrips (Dichromothrips corbetti)
Dichromothrips corbetti adults used for bioassay were obtained from a colony maintained continuously under laboratory conditions. For testing purposes, the test compound is diluted in a 1:1 mixture of acetone: water (vol: vol), plus Kinetic® HV at a rate of 0.01% v/v.
Thrips potency of each compound was evaluated by using a floral-immersion technique. All petals of individual, intact orchid flowers were dipped into treatment solution and allowed to dryin Petri dishes. Treated petals were placed into individual re-sealable plastic along with about 20 adult thrips. All test arenas were held under continuous light and a temperature of about 28 °C for duration of the assay. After 3 days, the numbers of live thrips were counted on each petal. The percent mortality was recorded 72 hours after treatment.

Anthonomus grandis = assay: Action on Boll Weevil (Anthonomus grandis); details: 800 ppm, egg and larval mortality, 5 days
Method in brief: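 Compounds in 75:25 water:DMSO sprayed at several concentrations onto insect diet in microtiter wells holding 5-10 eggs, two replicates. Plates kept 5 days at about 25±1 °C and 75±5% RH; egg and larval mortality scored visually.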

Aedes aegypti = assay: whole plant or invertebrate; details: for mortality in comparison with untreated controls: 800 ppm, larvae, 2 days
Method in brief: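 Freshly hatched larvae (5-15 per well) were held in tap water, and compounds formulated in 25% DMSO/water were sprayed onto diet at several concentrations in duplicate. Larval mortality was scored visually after 2 days at 28±1 °C, 80±5% RH.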

Heliothis virescens = assay: Action on Tobacco Budworm (Heliothis virescens); details: 800 ppm, egg and larval mortality, 5 days
Method in brief: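 Compounds in 25% DMSO/75% water were sprayed at several concentrations onto insect diet in microtiter wells holding 15-25 eggs, two replications. After 5 days at about 28±1 °C and 80±5% RH, egg and larval mortality was scored visually.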

Plutella xylostella [1] = assay: Action on Diamond Back Moth (Plutella xylostella), cabbage leaf dip, 3rd instar larvae; details: 300 ppm, 3rd instar larvae, 72 hours after treatment
Method in brief: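 Cabbage leaves dipped in compound solution (1:1 water:acetone, 0.01% v/v surfactant), air-dried, then infested with ten 3rd-instar larvae in petri dishes on moist filter paper. Mortality scored at 72 h after treatment; feeding damage rated on a 0–100% scale.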

Spodoptera eridania = assay: Action on Southern Armyworm (Spodoptera eridania), 2nd Instar Larvae; details: 300 ppm, 2nd instar larvae, 4 days after treatment
Method in brief: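 Compounds in 50% acetone/water with 0.01% nonionic surfactant sprayed electrostatically onto Lima bean plants at 1st true leaf stage. After drying, 10–11 2nd-instar larvae bagged with each pot, kept about 25 °C, 20–40% RH. Mortality and reduced feeding scored at 4 days vs untreated plants.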

Plutella xylostella [2] = assay: Action on Diamond Back Moth (Plutella xylostella), microtiter plates, insect diet, eggs; details: 800 ppm; egg and larval mortality; 5 days
Procedure: Example B8: Action on Diamond Back Moth (Plutella xylostella)
For evaluating control of diamond back moth (Plutella xylostella) the test unit consisted of 96-well-microtiter plates containing an insect diet and 15-25 P. xylostella eggs. The compounds or mixtures were formulated using a solution containing 75% water and 25% DMSO. Different concentrations of formulated compounds or mixtures were sprayed onto the insect diet at 5 μl, using a custom-built micro atomizer, at two replications. For experimental mixtures in these tests identical volumes of both mixing partners at the desired concentrations respectively, were mixed together. After application, microtiter plates were incubated at 28±1 °C, 80±5% RH for 5 days. Egg and larval mortality was then visually assessed.

| SMILES | mortality at 300 ppm (Dichromothrips corbetti; Dichromothrips corbetti, read-out: mortality in comparison with untreated controls) | mortality at 800 ppm (Anthonomus grandis; Anthonomus grandis, 120 h, read-out: mortality in comparison with untreated controls) | mortality at 800 ppm (Aedes aegypti; Aedes aegypti, 48 h, read-out: mortality in comparison with untreated controls) | mortality at 800 ppm (Heliothis virescens; Heliothis virescens, 120 h, read-out: mortality in comparison with untreated controls) | mortality at 300 ppm (Plutella xylostella [1]; Plutella xylostella, foliar, read-out: mortality in comparison with untreated controls) | mortality at 300 ppm (Spodoptera eridania; Spodoptera eridania, 96 h, read-out: mortality in comparison with untreated controls) | mortality in comparison with untreated controls (Dichromothrips corbetti) | mortality in comparison with untreated controls (Plutella xylostella [1]) | mortality in comparison with untreated controls (Spodoptera eridania) | mortality in comparison with untreated controls (Anthonomus grandis) | mortality in comparison with untreated controls (Aedes aegypti) | mortality in comparison with untreated controls (Heliothis virescens) | mortality in comparison with untreated controls (Plutella xylostella [2]) |
| --- | --- | --- | --- | --- | --- | --- | --- | --- | --- | --- | --- | --- | --- |
| Cc1ccc(C(C)C)c(N2C(=O)CS/C2=N\C(=O)Nc2ccc(-n3cc(NC(=O)c4ccc(OC(F)(F)F)cc4)c(C)n3)cc2C)c1 [Example C-1, N-[1-[4-[[(Z)-[3-(2-isopropyl-5-methyl-phenyl)-4-oxo-thiazolidin-2-ylidene]carbamoyl]amino]-3-methyl-phenyl]-3-methyl-pyrazol-4-yl]-4-(trifluoromethoxy)benzamide] | ≥ 75% | ≥ 75% | ≥ 50% | ≥ 75% | ≥ 75% | ≥ 75% | – | – | – | – | – | – | – |
| Cc1ccc(C(C)C)c(N2C(=O)CS/C2=N\C(=O)Nc2ccc(-n3nc(C)c(NC(=O)c4ccc(OC(F)(F)F)cc4)c3C)nc2)c1 [Example C-22] | – | – | – | – | – | – | at least 75% | at least 75% | at least 75% | – | – | – | – |
| COc1ccc(C(C)C)c(N2C(=O)CSC2=NC(=O)Nc2ccc(-n3nc(C)c(NC(=O)c4ccc(OC(F)(F)F)cc4)c3C)cc2Cl)c1 [Example C-44] | – | – | – | – | – | – | at least 75% | at least 75% | – | at least 75% | at least 50% | at least 75% | – |
| Cc1ccc(C(C)C)c(N2C(=O)CS/C2=N\C(=O)Nc2ccc(-n3nc(C)c(NC(=O)c4ccc(Cl)cc4F)c3C)cc2Cl)c1 [Example C-106] | – | – | – | – | – | – | – | – | at least 75% | at least 75% | at least 50% | at least 75% | at least 75% |
| Cc1ccc(C(C)C)c(N2C(=O)CSC2=NC(=O)Nc2ccc(-n3nc(C)c(NC(=O)c4ccc(C#N)cc4F)c3C)cc2)c1 [Example C-107] | – | – | – | – | – | – | – | – | at least 75% | at least 75% | at least 50% | at least 75% | at least 75% |
| Cc1ccc(C(C)C)c(N2C(=O)CSC2=NC(=O)Nc2ccc(-n3nc(C)c(NC(=O)c4ccc(C#N)c(F)c4)c3C)cc2)c1 [Example C-108] | – | – | – | – | – | – | – | – | at least 75% | at least 75% | at least 50% | at least 75% | at least 75% |
| Cc1ccc(C(C)C)c(N2C(=O)CSC2=NC(=O)Nc2ccc(-n3nc(C)c(NC(=O)c4ccc(Cl)c(F)c4)c3C)cc2)c1 [Example C-109] | – | – | – | – | – | – | – | – | at least 75% | at least 75% | at least 50% | at least 75% | at least 75% |
| Cc1ccc(C(C)C)c(N2C(=O)CSC2=NC(=O)Nc2ccc(-n3nc(C)c(NC(=O)c4ccc(Cl)cc4F)c3C)cc2)c1 [Example C-110] | – | – | – | – | – | – | – | – | at least 75% | at least 75% | at least 50% | at least 75% | at least 75% |
| Cc1ccc(C(C)C)c(N2C(=O)CSC2=NC(=O)Nc2ccc(-n3nc(C)c(NC(=O)c4ccc(Cl)cc4)c3C)cc2)c1 [Example C-111] | – | – | – | – | – | – | – | – | at least 75% | at least 75% | at least 50% | at least 75% | at least 75% |
| Cc1ccc(C(C)C)c(N2C(=O)CSC2=NC(=O)Nc2ccc(-n3nc(C)c(NC(=O)c4ccc(F)cc4)c3C)cc2)c1 [Example C-112] | – | – | – | – | – | – | – | – | at least 75% | at least 75% | at least 50% | at least 75% | at least 75% |
| Cc1ccc(C(C)C)c(N2C(=O)CSC2=NC(=O)Nc2ccc(-n3nc(C)c(NC(=O)c4ccc(F)c(F)c4)c3C)cc2)c1 [Example C-114] | – | – | – | – | – | – | – | – | at least 75% | at least 75% | at least 50% | at least 75% | at least 75% |
| Cc1ccc(C(C)C)c(N2C(=O)CSC2=NC(=O)Nc2ccc(-n3nc(C)c(NC(=O)c4ccc(Cl)c(Cl)c4)c3C)cc2)c1 [Example C-115] | – | – | – | – | – | – | – | – | at least 75% | at least 75% | at least 50% | at least 75% | at least 75% |
| Cc1ccc(C(C)C)c(N2C(=O)CSC2=NC(=O)Nc2ccc(-n3nc(C)c(NC(=O)c4ccc(Br)cc4)c3C)cc2)c1 [Example C-116] | – | – | – | – | – | – | – | – | at least 75% | at least 75% | at least 50% | at least 75% | at least 75% |
| Cc1ccc(C(C)C)c(N2C(=O)CSC2=NC(=O)Nc2ccc(-n3nc(C)c(NC(=O)c4cc(F)c(F)c(F)c4)c3C)cc2)c1 [Example C-117] | – | – | – | – | – | – | – | – | at least 75% | at least 75% | at least 50% | at least 75% | at least 75% |
| Cc1ccc(C(C)C)c(N2C(=O)CSC2=NC(=O)Nc2ccc(-n3nc(C)c(NC(=O)c4ccc(Cl)c(C#N)c4)c3C)cc2)c1 [Example C-118] | – | – | – | – | – | – | – | at least 75% | – | at least 75% | – | – | at least 75% |
| Cc1ccc(C(C)C)c(N2C(=O)CSC2=NC(=O)Nc2ccc(-n3nc(C)c(NC(=O)c4cc(F)c(F)cc4F)c3C)cc2)c1 [Example C-120] | – | – | – | – | – | – | – | – | at least 75% | at least 75% | at least 50% | at least 75% | at least 75% |
| Cc1nn(-c2ccc(NC(=O)NC(=S)Nc3ccccc3C(C)C)cc2)cc1NC(=O)c1ccc(OC(F)(F)F)cc1 [Example C-126] | – | – | – | – | – | – | – | – | at least 75% | at least 75% | at least 50% | at least 75% | at least 75% |
| Cc1ccc(C(C)C)c(N2CCSC2=NC(=O)Nc2ccc(-n3nc(C)c(NC(=O)c4ccc(OC(F)(F)F)cc4)c3C)cc2Cl)c1 [Example C-128] | – | – | – | – | – | – | – | – | at least 75% | at least 75% | at least 50% | at least 75% | at least 75% |
